# Test results published in US11723946B2, “Methods for regulating transcription of multiple genes and expression of multiple targets” (CHINA MEDICAL UNIVERSITY, priority 2014, dated 2023).
# How the values were obtained:
# NF-κB [1] = experiment: Whole animal bioluminescent imaging, LPS-induced NF-κB/luc transgenic mice; assay type: in vivo
# Description: Mice: The NF-κB/luc transgenic mice bearing the luciferase transgene driven by two copies of the NF-kappaB regulatory elements were mated with wild-type FVB mice to generate the hybrid NF-κB/luc transgenic offspring for the experiments. Whole animal bioluminescent imaging: 15 mice with age of 6˜8 weeks were randomly divided into three groups. The group 1 was the blank group; the group 2 was control group; and the group 3 was experimental group. The mice of the group 2 and the group 3 were administration with 100 ul of […] lipopolysaccharide (LSP) solution to induce the inflammation in the mice by intraperitoneal injection (IP injection). As the blank control, the mice of group 1 were administered with 100 μl of PBS by IP injection. After the LPS-injection for 5 minutes, the mice of the group 3 were further injected with 20 μl solution that contains 0.5 mg/Kg of the present polypeptide by IP injection. In contrast, the mice of the group 2 and the […] were injected with 20 μul of water. […] For in vivo imaging mice were anesthetized with isoflurane and injected intraperitoneally with 150 mg/kg luciferin. After 10 minutes, the mice were placed face up and imaged for 1 min with the camera set at the highest sensitivity by IVIS Imaging System-200 (Series Xenogen Hopkinton, Mass.). The photons emitted from the tissues were quantified by Living Images software (Xenogen, Hopkinton, Mass.) and were shown in FIG. 4A. In the FIG. 4A, the Y-axis shown the signal strength (photons/sec) that stands for total photons diffused from the mice.
# NF-κB [2] = experiment: Ex vivo bioluminescent imaging of organs, LPS-induced NF-κB/luc transgenic mice; assay type: in vivo; conditions: group 2 (LPS IP) vs group 1 (PBS blank); up-regulation
# Procedure: The mice of the three groups manipulated in example 3 were abdominally injected with 150 mg/Kg luciferin. After luciferin injection for 5 minutes, the mice were sacrificed and the tissues including brain, heart, lung, liver, spleen, stomach, kidney, ovary and intestine were rapidly removed. The collected tissues were placed in the IVIS Imaging System-200 Series (Xenogen, Hopkinton, Mass.) and imaged with the same setting used for in vivo bioluminescent imaging.
# In the table 2, the average of luciferin value in the mice of the group 2 was divided to average of luciferin value in the mice of the group 1 to obtain the fold change. In table 3, the average of luciferin value in the mice of the group 3 was divided to the average of luciferin value in the mice of the group 2 to obtain the fold change.
substance,measurement,setting,value
"lipopolysaccharide [LPS, reference compound]",increase of NF-κB-driven luminescent intensity,NF-κB [1]; LPS group vs blank group,approximately 10.95 fold
same,average of luciferin value,"NF-κB [1]; group 2: LPS IP + water, 4 hours, blank group 1 2.92×10^7",31.97×10^7 photons/sec
same,"Fold change of the luciferin value, Brain",NF-κB [2],18.87 folds
same,"Fold change of the luciferin value, Heart",NF-κB [2],6.03 folds
same,"Fold change of the luciferin value, Intestine",NF-κB [2],55.63 folds
same,"Fold change of the luciferin value, Kidney",NF-κB [2],93.78 folds
same,"Fold change of the luciferin value, Liver",NF-κB [2],4.06 folds
same,"Fold change of the luciferin value, Lung",NF-κB [2],11.90 folds
same,"Fold change of the luciferin value, Ovary",NF-κB [2],5.35 folds
same,"Fold change of the luciferin value, Spleen",NF-κB [2],5.57 folds
same,"Fold change of the luciferin value, Stomach",NF-κB [2],4.95 folds
